Data from patent publication US20220204479A1, “PYRIMIDINE COMPOUND AND PREPARATION METHOD THEREFOR” (Wuhan Humanwell Innovative Drug Research And Development …, priority 2019, published 2022).
In brackets after ≈: the same amount, converted by molar mass. Like-named read-outs stand apart in the source and are kept apart here.

Assays:
[1] = Pharmacokinetic test in mice; type: in vivo; settings: mouse, plasma; male CD-1 mice, oral gavage 10 mg/kg
Experimental: (§1) For the pharmacokinetic test of mice, male CD-1 mice (20 g to 25 g) were used, and fasted overnight. The mice were orally administered by gavage (10 mg/kg). […] The blood samples were centrifuged at 8,000 rpm at 4° C. for 6 min, and plasma was collected and stored at −20° C. The plasma at each time point was taken and added with an acetonitrile solution containing internal standard in 3 to 5 times the amount, vortexed and mixed for 1 min, and centrifuged at 13,000 rpm at 4° C. for 10 min. The supernatant was collected, added with water in 3 times the amount, and mixed. An appropriate amount of the mixture was taken for LC-MS/MS analysis. The main pharmacokinetic parameters were analyzed using WinNonlin 7.0 software with non-compartmental model.

[2] = target: T1, hERG channels (CHO cell line stably expressing hERG) (Homo sapiens, UniProt Q12809); assay: cell-based
Experimental: (§4) Full-automatic electrophysiological patch clamp QPatch was used to detect the inhibitory effect of compounds on hERG. Cells used in this test were CHO cell line transfected with cDNA of hERG and stably expressing hERG channels (provided by Sophion Bioscience, Denmark), and the cell passage number was P24. The cells were cultured in a medium containing the following components (all purchased from Invitrogen): Ham's F12 medium, inactivated fetal bovine serum (10% (v/v)), hygromycin B (100 μg/ml), and Geneticin (100 μg/ml). CHO hERG cells were grown in a petri dish containing the above-mentioned medium and cultured in an incubator at 37° C. and containing 5% CO2.
(§5) The test compound was prepared into a 10 mM stock solution in DMSO solvent, the compound was diluted to 3 mM, 1 mM, 0.3 mM, and 0.1 mM with DMSO, and then the compound was diluted to 30 μM, 10 μM, 3 μM, 1 μM, 0.3 μM and 0.1 μM with the extracellular fluid, so that except that the final concentration of DMSO in the 30 μM compound was 0.3%, the final concentration of DMSO in compound solutions of all other concentrations was 0.10%.
(§6) The CHO hERG cells, after being digested and resuspended, were added to the full-automatic QPatch system (Sophion, Denmark), and subjected to a test according to the following preset procedure.
(§7) After reaching the ruptured whole cell configuration state in the initial stage, the whole cell current was recorded at room temperature (about 25° C.) for at least 120 seconds in order to achieve stability. The stable cells were selected for the test. During the whole test, the cells were clamped at a voltage of −80 mV, the cell clamp voltage was depolarized to +20 mV to activate the hERG potassium channels, and after 2.5 seconds, the cell clamp voltage was at −50 mV to eliminate inactivation and generate outward tail current. The peak tail current was used as the value of the hERG current. The voltage mode described above was applied to the cells for electrophysiological test every 15 seconds. An intracellular liquid containing 0.1% dimethyl sulfoxide (solvent) was added to the cells to establish a baseline, and then the current was allowed to stabilize for 3 min. After the compound solution was added, the cells were kept in the test environment until the effect of the compound reached a steady state or until reaching 4 min. In the test experiments with different concentration gradients of the compound, the compound was added from low to high concentration to the clamped cells. After the compound test was finished, the cells were washed with the extracellular fluid until the current returned to a stable state. The test data was analyzed by Qpatch analysis software provided by Sophion, Excel, and Graphpad Prism, etc.

[3] = target: T2, ATX enzyme in human plasma (Homo sapiens, UniProt Q13822); assay: Inhibition of activity of ATX enzyme in human plasma (LPA18:2 formation, LC-MSMS); type: biochemical; settings: for inhibitory effect on ATX enzyme in human plasma compared with control compounds 1 and 2: comparison in words; for IC50: human plasma, 37° C., 3 h, LPA18:2 formation, read-out: IC50, inhibitory effect on activity of ATX enzyme in human plasma
T2 construct: Whole blood was collected from healthy volunteers and anticoagulated with heparin; from tissue; host or cells: human plasma (heparin) from healthy volunteers
Experimental: Whole blood was collected from healthy volunteers and anticoagulated with heparin. The blood collection tubes were centrifuged at 3,000 rpm for 10 min, and the plasma was taken and stored at −80° C. for use.
The compound was serially diluted with DMSO according to the conventional concentration requirements, then 3 μL of each of the diluted compound solutions was added to a 96-well plate, and 147 μL of PBS was added to each well containing 3 μL of the compound solution. After mixing homogenously, 50 μL of the mixture was taken out and added to a new 96-well plate. The human plasma was taken out from the −80° C. refrigerator and thawed through rapid shaking in a 37° C. water bath. 50 μL of the human plasma was taken and added to the 96-well plate containing 50 μL of the diluted compound (the final system contained 1% DMSO). The group without the compound was set as the positive group. The 96-well plate was shaken and mixed uniformly, and incubated at 37° C. for 3 h. A blank group was also provided, and the plasma of the blank group was stored at −80° C. The blank group is provided to determine the baseline concentration of endogenous LPA.
After the incubation was finished, the blank group was thawed on ice and transferred to an incubation plate. Excess acetonitrile containing the internal standard LPA17: 0 was added to the incubation plate to precipitate the plasma protein. After vortex centrifugation, the supernatant was taken and diluted, and a peak area of LPA18: 2 and a peak area of internal standard LPA17: 0 were detected using LC-MSMS mass spectrometry.
(§2) A ratio of the peak area of LPA18: 2 to the peak area of internal standard LPA17: 0 was calculated, and a formation inhibition rate of LPA18: 2 was calculated according to the following formula:
(§3) Inhibition rate (%)=100−(compound group with different concentrations−blank group)/(positive group−blank group)*100
According to the inhibition rates of different concentrations of the compound, the IC50 value of the compound for inhibiting activity of ATX enzyme in human plasma was calculated.

autotaxin (ATX) enzyme = target: T3, autotaxin (ATX) enzyme (Homo sapiens, UniProt Q13822); assay: Autotaxin (ATX) enzyme activity inhibition test (Cayman Autotaxin Inhibitor Screening Assay Kit); type: biochemical; settings: 37° C., 30 min, OD405, read-out: IC50, inhibitory effect on ATX enzyme activity
T3 construct: purchased Cayman 700580
Experimental: The inhibitory effects of the compounds on the autotaxin enzyme were detected using the Autotaxin Inhibitor Screening Assay Kit (Cayman, 700580). […] Subsequently, the 8 concentrations were diluted with Autotaxin Assay buffer (1×) provided in the kit into 19× compound working solutions (DMSO content was 1.9%). The Autotaxin Assay Reagent (10×) was taken out and diluted by 10 times with Autotaxin Assay Buffer (1×). The Autotaxin Substrate was taken out, dissolved by adding 1.2 mL of Autotaxin Assay Buffer (1×), mixed evenly and let stand by at room temperature. In a 96-well plate, 150 μL of Autotaxin Assay Buffer (1×), 10 μL of the prepared and diluted 19× compound working solution, 10 μL of Autotaxin Assay Reagent (1×), and 20 μL of the dissolved Autotaxin Substrate were added to each of the wells for each concentration, and homogenously mixed. The 96-well plate was shaken in a constant temperature shaker at 37° C. and incubated in the dark for 30 min, and then the plate was taken out and placed on a microplate reader to read OD405.

ATX enzyme in rat plasma = target: T4, ATX enzyme in rat plasma (Rattus norvegicus, UniProt Q64610); assay: Inhibition of activity of ATX enzyme in rat plasma (LPA18:2 formation, LC-MSMS); type: biochemical; settings: for inhibitory activity on ATX enzyme in rat plasma compared with control compounds 1 and 2: comparison in words
T4 construct: Whole blood was collected from rats and anticoagulated with heparin; from tissue; host or cells: rat plasma (heparin)
Experimental: Whole blood was collected from rats and anticoagulated with heparin. The blood collection tubes were centrifuged at 3,000 rpm for 15 min, and the plasma was placed on ice for use.
The compound was serially diluted with DMSO: 30% ACN=1:19 according to the conventional concentration requirements, and then placed on ice. 147 μL of plasma, which was placed on ice, was added to a 96-well plate, and then 3 μL of each of the gradient solutions of the compound (finally 1[…] DMSO) was added. A group containing none of the compounds was set as the positive group. The 96-well plate was mixed uniformly, and incubated at 37° C. for 3 h. In addition, a blank group was also provided. At the beginning of the incubation, the plasma of blank group was added to with excessive acetonitrile containing the internal standard LPA17: 0 to precipitate the plasma protein, vortexed to mix, and stored at 4° C. The blank group was provided to determine the baseline concentration of endogenous LPA.
A peak area of LPA18: 2 and a peak area of internal standard LPA17: 0 were detected using LC-MSMS mass spectrometry.
as §2, §3
According to the inhibition rates of different concentrations of the compound, the IC50 value of the compound for inhibiting activity of ATX enzyme in rat plasma, was calculated.

[4] = Pharmacokinetic test in canines; type: in vivo; settings: dog, plasma; male beagle dogs, oral gavage 5 mg/kg
Experimental: as §1, with “rats, 3” for “mice,”, “SD rats (180-240” for “CD-1 mice (20 g to 25”, “rats” for “mice”
For the pharmacokinetics test of canines, 3 male beagle dogs (8 to 10 kg) were used, and fasted overnight. The dogs were orally administered by gavage (5 mg/kg). The rest of the operation is the same as the pharmacokinetic test in rats.

[5] = Pharmacokinetic test in rats; type: in vivo; settings: male SD rats, oral gavage 10 mg/kg
Experimental: as §1, with “rats, 3” for “mice,”, “SD rats (180-240” for “CD-1 mice (20 g to 25”, “rats” for “mice”

[6] = Human liver microsome stability test; settings: for Remaining percentage (%) of compound after incubation for 30 min: NADPH, 37° C.; for half-life at 1 µM: human
Experimental: The human liver microsome stability test was performed by incubating the compound and human liver microsomes in vitro for detection. First, the test compound was prepared into a 10 mM stock solution in DMSO solvent, and then the compound was diluted to 0.5 mM with acetonitrile. Human liver microsomes (Corning) were diluted with PBS and prepared as a microsome/buffer solution, which was used to dilute the 0.5 mM compound solution into a working solution. […] A deep-well multi-well plate was taken, 30 μL of the working solution and 15 μL of pre-warmed NADPH solution (6 mM) were sequentially added to each well to initiate a reaction, and the reaction was incubated at 37° C. […] After centrifugation, the supernatant was collected, and added with purified water in a ratio of 1:1 to perform LC-MS/MS detection. […] T1/2 was calculated by using Excel.

[7] = target: T1, hERG channels (CHO cell line stably expressing hERG); assay: Inhibitory effect on hERG by full-automatic electrophysiological patch clamp QPatch; settings: hERG IC50 (μM) divided by ATX enzyme IC50 (nM)
Experimental: as §4, §5, §6, §7

[8] = cited from earlier work; for probability of discontinuation due to serious adverse events: patients taking the drug
[9] = Thermodynamic solubility test; type: physicochemical; settings: thermodynamic from solid
Experimental: The compound was accurately weighed, and the prepared phosphate buffer (pH 7.4), FeSSIF solution (pH 5.8) and FaSSGF solution (pH 1.6) were added to prepare a solution with a concentration of 4 mg/mL, which was shaken at 1,000 rpm for 1 hour, and then incubated overnight at room temperature. After the incubation, the solution was centrifuged at 12,000 rpm for 10 min to remove undissolved particles, and the supernatant was transferred to a new centrifuge tube. The supernatant was diluted appropriately, then added with an acetonitrile solution containing the internal standard, and quantified using a standard curve prepared with the same matrix.

[10] = rat plasma, 37° C., 3 h, LPA18:2 formation, read-out: IC50, inhibitory effect on activity of ATX enzyme in rat plasma

T1 sequence (Q12809 whole entry): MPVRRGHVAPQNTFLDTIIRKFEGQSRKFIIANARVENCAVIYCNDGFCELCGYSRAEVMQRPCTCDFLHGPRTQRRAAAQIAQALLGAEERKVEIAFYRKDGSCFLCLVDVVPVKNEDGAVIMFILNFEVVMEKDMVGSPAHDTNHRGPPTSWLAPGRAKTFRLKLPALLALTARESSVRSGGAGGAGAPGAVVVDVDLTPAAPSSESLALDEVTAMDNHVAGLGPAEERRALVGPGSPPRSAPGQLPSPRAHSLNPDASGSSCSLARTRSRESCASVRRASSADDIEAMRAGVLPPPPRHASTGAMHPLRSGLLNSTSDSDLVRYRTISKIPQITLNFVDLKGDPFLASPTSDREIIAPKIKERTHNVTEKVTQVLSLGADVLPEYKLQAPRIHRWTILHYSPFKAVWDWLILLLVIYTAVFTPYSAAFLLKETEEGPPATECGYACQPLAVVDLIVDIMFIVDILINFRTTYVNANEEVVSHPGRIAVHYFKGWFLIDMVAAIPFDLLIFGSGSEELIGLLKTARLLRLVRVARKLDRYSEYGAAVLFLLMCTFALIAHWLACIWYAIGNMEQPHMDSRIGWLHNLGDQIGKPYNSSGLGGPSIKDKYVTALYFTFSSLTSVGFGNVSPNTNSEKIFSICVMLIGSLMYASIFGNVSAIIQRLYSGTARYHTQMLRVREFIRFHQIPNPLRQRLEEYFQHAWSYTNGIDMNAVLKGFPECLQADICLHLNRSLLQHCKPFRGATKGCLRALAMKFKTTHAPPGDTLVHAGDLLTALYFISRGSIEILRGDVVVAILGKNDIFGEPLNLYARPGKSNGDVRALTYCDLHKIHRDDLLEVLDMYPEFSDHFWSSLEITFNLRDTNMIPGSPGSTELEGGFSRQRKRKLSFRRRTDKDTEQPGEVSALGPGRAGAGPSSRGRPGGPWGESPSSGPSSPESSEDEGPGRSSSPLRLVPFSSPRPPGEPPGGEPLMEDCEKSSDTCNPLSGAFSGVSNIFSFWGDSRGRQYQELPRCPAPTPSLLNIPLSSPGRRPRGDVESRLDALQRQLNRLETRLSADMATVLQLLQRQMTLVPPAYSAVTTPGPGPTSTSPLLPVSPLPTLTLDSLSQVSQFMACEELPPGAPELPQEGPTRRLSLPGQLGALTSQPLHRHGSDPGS

## O=C(c1cnc(NC2Cc3ccccc3C2)nc1)N1CC2(CC(OCc3c[nH]nn3)C2)C1 [Compound I-9, (6-((1H-1,2,3-triazol-4-yl)methoxy)-2-azaspiro[3.3]heptan-2-yl)(2-((2,3-dihydro-1H-inden-2-yl)amino)pyrimidin-5-yl)methanone]
[1]
  AUC(0-t): 4590 ng·h/mL
  Cmax: 3870 ng/mL
  Tmax: 19.8 min
[2]
  IC50: 13400 nM
[3]
  inhibitory effect on ATX enzyme in human plasma compared with control compounds 1 and 2: higher inhibitory effect on ATX enzyme in human plasma than the control compounds 1 and 2
  IC50: 2.74 nM
Autotaxin (ATX) enzyme
  IC50: 1.43 nM
ATX enzyme in rat plasma
  inhibitory activity on ATX enzyme in rat plasma compared with control compounds 1 and 2: higher inhibitory activity on ATX enzyme in rat plasma than the control compounds 1 and 2
ATX enzyme in rat plasma; [10]
  IC50: 2.83 nM
[4]
  AUC(0-t): 9410 ng·h/mL
  Cmax: 2090 ng/mL
  Tmax: 70.2 min
[5]; Sprague-Dawley, rat, in vivo
  Tmax: 25.2 min
[5]; Sprague-Dawley, rat, in vivo, read-out: AUC0-t
  AUC(0-t): 1410 ng·h/mL
[5]; Sprague-Dawley, rat, in vivo, read-out: Cmax
  Cmax: 973 ng/mL
[6]; human liver microsomes
  Remaining percentage (%) of compound after incubation for 30 min: 95.5%
[6]; microsomes
  half-life at 1 µM: 242 min
[7]
  hERG IC50/ATX IC50: 13.4/1.43 = 9.37

## COC(=O)c1ccc2c(c1)NC(=O)/C2=C(\Nc1ccc(N(C)C(=O)CN2CCN(C)CC2)cc1)c1ccccc1 [Nintedanib]
[8]
  probability of discontinuation due to serious adverse events: 26.3%
[8]; patients
  incidence of gastrointestinal reactions: ≤ 50%

## Cc1ccc(=O)n(-c2ccccc2)c1 [Pirfenidone]
[8]
  probability of discontinuation due to serious adverse events: 20.9%

## O=C(c1cnc(NC2Cc3ccccc3C2)nc1)N1CCC(COCc2cn[nH]n2)CC1 [Compound I-1, (4-(((2H-1,2,3-triazol-4-yl)methoxy)methyl)piperidin-1-yl)(2-((2,3-dihydro-1H-inden-2-yl)amino)pyrimidin-5-yl)methanone]
[1]
  AUC(0-t): 2390 ng·h/mL
  Cmax: 1860 ng/mL
  Tmax: 25.2 min
[2]
  IC50: 7930 nM
[3]
  inhibitory effect on ATX enzyme in human plasma compared with control compounds 1 and 2: higher inhibitory effect on ATX enzyme in human plasma than the control compounds 1 and 2
  IC50: 8.73 nM
Autotaxin (ATX) enzyme
  IC50: 2.05 nM
ATX enzyme in rat plasma
  inhibitory activity on ATX enzyme in rat plasma compared with control compounds 1 and 2: higher inhibitory activity on ATX enzyme in rat plasma than the control compounds 1 and 2
ATX enzyme in rat plasma; [10]
  IC50: 6.49 nM
[4]
  AUC(0-t): 17600 ng·h/mL
  Cmax: 3670 ng/mL
  Tmax: 70.2 min
[5]; Sprague-Dawley, rat, plasma
  Tmax: 30 min
[5]; Sprague-Dawley, rat, plasma, read-out: AUC0-t
  AUC(0-t): 5720 ng·h/mL
[5]; Sprague-Dawley, rat, plasma, read-out: Cmax
  Cmax: 3180 ng/mL
[6]; human liver microsomes
  Remaining percentage (%) of compound after incubation for 30 min: 85.6%
  half-life at 1 µM: 99 min
[7]
  hERG IC50/ATX IC50: 7.93/2.05 = 3.87

## O=C(COCCc1cnn[nH]1)N1Cc2cnc(NC3Cc4ccccc4C3)nc2C1 [Control compound 1, reference compound]
[9]; FaSSGF solution, fassgf or other biorelevant, FaSSGF pH 1.6, overnight at room temperature, read-out: Solubility, FaSSGF (pH 1.6)
  solubility: 66.5 µg/mL (≈ 164 µM)
[9]; FeSSIF solution, FeSSIF pH 5.8, overnight at room temperature, read-out: Solubility, FeSSIF (pH 5.8)
  solubility: 18.3 µg/mL (≈ 45.1 µM)
[9]; phosphate buffer (PBS), aqueous buffer, PBS pH 7.4, overnight at room temperature, read-out: Solubility, PBS (pH 7.4)
  solubility: 6.3 µg/mL (≈ 15.5 µM)
[1]
  AUC(0-t): 2570 ng·h/mL
  Cmax: 1500 ng/mL
  Tmax: 15 min
[2]
  IC50: 6690 nM
ATX enzyme in rat plasma
  IC50: 13.6 nM
[4]
  AUC(0-t): 10100 ng·h/mL
  Cmax: 2390 ng/mL
  Tmax: 60 min
[5]; Sprague-Dawley, rat, plasma
  Tmax: 25.2 min
[5]
  AUC(0-t): 4874 ng·h/mL
  Cmax: 2591 ng/mL
[6]; human liver microsomes
  Remaining percentage (%) of compound after incubation for 30 min: 41.2%
[6]; microsomes
  half-life at 1 µM: 24.1 min
